We go through 19 molecules from ChEMBL document CHEMBL3259715, “Shuttle-cargo fusion molecules of transport peptides and the hD2/3 receptor antagonist fallypride: a feasible approach to preserve ligand-receptor binding?” (J Med Chem, 2014).

pKi: −log10 of the molar value. Peptide text beside a SMILES is read from it. * marks the point of attachment. X1 = C=CCN1CCC[C@H]1CNC(=O)c1cc(CCCSC2CC(=O)N(CCCCCC(=O)*)C2=O)cc(OC)c1OC Where only a bound is given, the exact number is not on record here.

The target in this experiment is D(2) dopamine receptor (Homo sapiens, UniProt P14416). In words: Displacement of [3H]spiperone from human D2 receptor transfected in HEK cells. Format: cell-based, HEK293.
Chain of D(2) dopamine receptor (P14416 whole entry): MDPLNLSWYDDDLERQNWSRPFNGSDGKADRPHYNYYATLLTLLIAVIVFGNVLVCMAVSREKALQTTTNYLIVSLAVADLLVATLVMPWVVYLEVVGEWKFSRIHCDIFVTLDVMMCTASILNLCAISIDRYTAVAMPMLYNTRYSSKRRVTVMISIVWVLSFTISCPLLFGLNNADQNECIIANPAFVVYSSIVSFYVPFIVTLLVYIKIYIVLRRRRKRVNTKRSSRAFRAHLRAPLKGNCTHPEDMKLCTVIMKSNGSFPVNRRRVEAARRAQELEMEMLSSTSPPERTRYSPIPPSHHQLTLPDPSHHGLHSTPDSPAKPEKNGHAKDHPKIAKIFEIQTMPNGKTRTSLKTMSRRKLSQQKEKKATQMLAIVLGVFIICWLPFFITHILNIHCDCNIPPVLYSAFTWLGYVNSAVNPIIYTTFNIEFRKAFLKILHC

One may read the pKi as the Ki on a negative log10 scale, so that one unit is a factor of ten. Low values mean a high Ki, high ones a low Ki. On to `C=CCN1CCC[C@H]1CNC(=O)c1cc(CCCSC2CC(=O)N(CCCCCC(=O)NCC(=O)N[C@@H](CCCNC(=N)N)C(=O)N[C@@H](CCCCN)C(=O)N[C@@H](CCCCN)C(=O)N[C@@H](CCCNC(=N)N)C(=O)N[C@@H](CCCNC(=N)N)C(=O)N[C@@H](CCC(N)=O)C(=O)N[C@@H](CCCNC(=N)N)C(=O)N[C@@H](CCCNC(=N)N)C(=O)N[C@@H](CCCNC(=N)N)C(=O)N3CCC[C@H]3C(=O)N3CCC[C@H]3C(=O)N[C@@H](CCC(N)=O)C(=O)O)C2=O)cc(OC)c1OC` (some centres undefined), for which the pKi is 7.67. With `C=CCN1CCC[C@H]1CNC(=O)c1cc(CCCSC2CC(=O)N(CCCCCC(=O)N[C@@H](CCCNC(=N)N)C(=O)N[C@@H](CCCCN)C(=O)N[C@@H](CCCCN)C(=O)N[C@@H](CCCNC(=N)N)C(=O)N[C@@H](CCCNC(=N)N)C(=O)N[C@@H](CCC(N)=O)C(=O)N[C@@H](CCCNC(=N)N)C(=O)N[C@@H](CCCNC(=N)N)C(=O)N[C@@H](CCCNC(=N)N)C(=O)O)C2=O)cc(OC)c1OC` (some centres undefined), the pKi was 8.01. As for `C=CCN1CCC[C@H]1CNC(=O)c1cc(CCCSC2CC(=O)N(CCCCCC(=O)N[C@@H](Cc3cnc[nH]3)C(=O)N[C@@H](C)C(=O)N[C@H](C(=O)N[C@@H](Cc3ccc(O)cc3)C(=O)N3CCC[C@H]3C(=O)N[C@@H](CCCNC(=N)N)C(=O)N[C@@H](Cc3cnc[nH]3)C(=O)O)[C@@H](C)CC)C2=O)cc(OC)c1OC` (some centres undefined), the pKi is 7.99. `C=CCN1CCC[C@H]1CNC(=O)c1cc(CCCSC2CC(=O)N(CCCCCC(=O)N[C@@H](CCCNC(=N)N)C(=O)N[C@@H](CCC(N)=O)C(=O)N[C@H](C(=O)N[C@@H](CCCCN)C(=O)N[C@H](C(=O)N[C@@H](Cc3c[nH]c4ccccc34)C(=O)N[C@@H](Cc3ccccc3)C(=O)N[C@@H](CCC(N)=O)C(=O)N[C@@H](CC(N)=O)C(=O)N[C@@H](CCCNC(=N)N)C(=O)N[C@@H](CCCNC(=N)N)C(=O)N[C@@H](CCSC)C(=O)N[C@@H](CCCCN)C(=O)N[C@@H](Cc3c[nH]c4ccccc34)C(=O)N[C@@H](CCCCN)C(=O)N[C@@H](CCCCN)C(=O)O)[C@@H](C)CC)[C@@H](C)CC)C2=O)cc(OC)c1OC` (some centres undefined) showed a pKi of 8.09. `C=CCN1CCC[C@H]1CNC(=O)c1cc(CCCSC2CC(=O)N(CCCCCC(=O)NCCCC(=O)N[C@@H](Cc3cnc[nH]3)C(=O)N[C@@H](C)C(=O)N[C@H](C(=O)N[C@@H](Cc3ccc(O)cc3)C(=O)N3CCC[C@H]3C(=O)N[C@@H](CCCNC(=N)N)C(=O)N[C@@H](Cc3cnc[nH]3)C(=O)O)[C@@H](C)CC)C2=O)cc(OC)c1OC` (some centres undefined) gave a pKi of 7.55. `C=CCN1CCC[C@H]1CNC(=O)c1cc(CCCSC2CC(=O)N(CCCCCC(=O)NCCOCCOCC(=O)N[C@@H](Cc3cnc[nH]3)C(=O)N[C@@H](C)C(=O)N[C@H](C(=O)N[C@@H](Cc3ccc(O)cc3)C(=O)N3CCC[C@H]3C(=O)N[C@@H](CCCNC(=N)N)C(=O)N[C@@H](Cc3cnc[nH]3)C(=O)O)[C@@H](C)CC)C2=O)cc(OC)c1OC` (some centres undefined) had a pKi of 7.52. In turn, `C=CCN1CCC[C@H]1CNC(=O)c1cc(CCCSC2CC(=O)N(CCCCCC(=O)NCCOCCOCCOCCOCCOCCOCCC(=O)N[C@@H](Cc3cnc[nH]3)C(=O)N[C@@H](C)C(=O)N[C@H](C(=O)N[C@@H](Cc3ccc(O)cc3)C(=O)N3CCC[C@H]3C(=O)N[C@@H](CCCNC(=N)N)C(=O)N[C@@H](Cc3cnc[nH]3)C(=O)O)[C@@H](C)CC)C2=O)cc(OC)c1OC` (some centres undefined) had a pKi of 7.56. As for `C=CCN1CCC[C@H]1CNC(=O)c1cc(CCCSC2CC(=O)N(CCCCCC(=O)NCCOCCOCCOCCOCCOCCOCCOCCOCCC(=O)N[C@@H](Cc3cnc[nH]3)C(=O)N[C@@H](C)C(=O)N[C@H](C(=O)N[C@@H](Cc3ccc(O)cc3)C(=O)N3CCC[C@H]3C(=O)N[C@@H](CCCNC(=N)N)C(=O)N[C@@H](Cc3cnc[nH]3)C(=O)O)[C@@H](C)CC)C2=O)cc(OC)c1OC` (some centres undefined), the figure is 7.27; as for `C=CCN1CCC[C@H]1CNC(=O)c1cc(CCCSC2CC(=O)N(CCCCCC(=O)NCCOCCOCCOCCOCCOCCOCCOCCOCCOCCOCCOCCOCCC(=O)N[C@@H](Cc3cnc[nH]3)C(=O)N[C@@H](C)C(=O)N[C@H](C(=O)N[C@@H](Cc3ccc(O)cc3)C(=O)N3CCC[C@H]3C(=O)N[C@@H](CCCNC(=N)N)C(=O)N[C@@H](Cc3cnc[nH]3)C(=O)O)[C@@H](C)CC)C2=O)cc(OC)c1OC` (some centres undefined), 7.60. As to `C=CCN1CCC[C@H]1CNC(=O)c1cc(CCCSC2CC(=O)N(CCCCCC(=O)NCCOCCOCCOCCOCCC(=O)N[C@H](C(=O)N[C@@H](Cc3ccccc3)C(=O)N[C@@H](Cc3ccccc3)C(=O)N[C@@H](Cc3ccc(O)cc3)C(=O)NCC(=O)NCC(=O)N[C@@H](CO)C(=O)N[C@@H](CCCNC(=N)N)C(=O)NCC(=O)N[C@@H](CCCCNC(=O)CN3CCN(CC(=O)O)CCN(CC(=O)O)CCN(CC(=O)O)CC3)C(=O)N[C@@H](CCCNC(=N)N)C(=O)N[C@@H](CC(N)=O)C(=O)N[C@@H](CC(N)=O)C(=O)N[C@@H](Cc3ccccc3)C(=O)N[C@@H](CCCCN)C(=O)N[C@H](C(=O)N[C@@H](CCC(=O)O)C(=O)N[C@@H](CCC(=O)O)C(=O)N[C@@H](Cc3ccc(O)cc3)C(=O)O)[C@@H](C)O)[C@@H](C)O)C2=O)cc(OC)c1OC` (some centres undefined), the pKi is 7.58.

Molecule `C=CCN1CCC[C@H]1CNC(=O)c1cc(CCCSC2CC(=O)N(CCCCCC(=O)NCCOCCOCCOCCOCCOCCOCCC(=O)N[C@H](C(=O)N[C@@H](Cc3ccccc3)C(=O)N[C@@H](Cc3ccccc3)C(=O)N[C@@H](Cc3ccc(O)cc3)C(=O)NCC(=O)NCC(=O)N[C@@H](CO)C(=O)N[C@@H](CCCNC(=N)N)C(=O)NCC(=O)N[C@@H](CCCCNC(=O)CN3CCN(CC(=O)O)CCN(CC(=O)O)CCN(CC(=O)O)CC3)C(=O)N[C@@H](CCCNC(=N)N)C(=O)N[C@@H](CC(N)=O)C(=O)N[C@@H](CC(N)=O)C(=O)N[C@@H](Cc3ccccc3)C(=O)N[C@@H](CCCCN)C(=O)N[C@H](C(=O)N[C@@H](CCC(=O)O)C(=O)N[C@@H](CCC(=O)O)C(=O)N[C@@H](Cc3ccc(O)cc3)C(=O)O)[C@@H](C)O)[C@@H](C)O)C2=O)cc(OC)c1OC` (some centres undefined) showed a pKi of 7.45. Molecule `C=CCN1CCC[C@H]1CNC(=O)c1cc(CCCSC2CC(=O)N(CCCCCC(=O)NCCOCCOCCOCCOCCOCCOCCOCCOCCC(=O)N[C@H](C(=O)N[C@@H](Cc3ccccc3)C(=O)N[C@@H](Cc3ccccc3)C(=O)N[C@@H](Cc3ccc(O)cc3)C(=O)NCC(=O)NCC(=O)N[C@@H](CO)C(=O)N[C@@H](CCCNC(=N)N)C(=O)NCC(=O)N[C@@H](CCCCNC(=O)CN3CCN(CC(=O)O)CCN(CC(=O)O)CCN(CC(=O)O)CC3)C(=O)N[C@@H](CCCNC(=N)N)C(=O)N[C@@H](CC(N)=O)C(=O)N[C@@H](CC(N)=O)C(=O)N[C@@H](Cc3ccccc3)C(=O)N[C@@H](CCCCN)C(=O)N[C@H](C(=O)N[C@@H](CCC(=O)O)C(=O)N[C@@H](CCC(=O)O)C(=O)N[C@@H](Cc3ccc(O)cc3)C(=O)O)[C@@H](C)O)[C@@H](C)O)C2=O)cc(OC)c1OC` (some centres undefined) had a pKi of 7.37. The pKi values of the last two molecules are within 0.2 log units of each other. The molecule `C=CCN1CCC[C@H]1CNC(=O)c1cc(CCCSC2CC(=O)N(CCCCCC(=O)N[C@H](C(=O)N[C@@H](Cc3ccccc3)C(=O)N[C@@H](Cc3ccccc3)C(=O)N[C@@H](Cc3ccc(O)cc3)C(=O)NCC(=O)NCC(=O)N[C@@H](CO)C(=O)N[C@@H](CCCNC(=N)N)C(=O)NCC(=O)N[C@@H](CCCCNC(=O)CN3CCN(CC(=O)O)CCN(CC(=O)O)CCN(CC(=O)O)CC3)C(=O)N[C@@H](CCCNC(=N)N)C(=O)N[C@@H](CC(N)=O)C(=O)N[C@@H](CC(N)=O)C(=O)N[C@@H](Cc3ccccc3)C(=O)N[C@@H](CCCC[n+]3c(C)cc(/C=C/C=C/c4ccc(N(C)C)cc4)cc3C)C(=O)N[C@H](C(=O)N[C@@H](CCC(=O)O)C(=O)N[C@@H](CCC(=O)O)C(=O)N[C@@H](Cc3ccc(O)cc3)C(=O)O)[C@@H](C)O)[C@@H](C)O)C2=O)cc(OC)c1OC` (some centres undefined) showed a pKi of 7.19. The pKi values of the last two molecules are within 0.2 log units of each other.

In turn, `C=CCN1CCC[C@H]1CNC(=O)c1cc(CCCSC2CC(=O)N(CCCCCC(=O)NCCOCCOCCOCCOCCC(N)=O)C2=O)cc(OC)c1OC` (some centres undefined) had a pKi of 8.14. This pKi is 0.95 log units higher than that of the molecule before.

Regarding `C=CCN1CCC[C@H]1CNC(=O)c1cc(CCCF)ccc1OC`, the pKi was 9.20. With `C=CCN1CCC[C@H]1CNC(=O)c1cc(CCCSC2CC(=O)N(CCCCCC(=O)NCC(=O)N[C@@H](Cc3c[nH]c4ccccc34)C(=O)N[C@H](C(=O)N[C@@H](CC(C)C)C(=O)N[C@@H](CC(=O)O)C(=O)N[C@@H](CO)C(=O)N[C@@H](C)C(=O)NCC(=O)N[C@@H](Cc3ccc(O)cc3)C(=O)N[C@@H](CC(C)C)C(=O)N[C@@H](CC(C)C)C(=O)NCC(=O)N[C@@H](CCCCN)C(=O)N[C@H](C(=O)N[C@@H](CC(=O)O)C(=O)N[C@@H](CC(C)C)C(=O)N[C@@H](CCCCN)C(=O)N[C@@H](C)C(=O)N[C@@H](CC(C)C)C(=O)N[C@@H](C)C(=O)N[C@@H](C)C(=O)N[C@@H](CC(C)C)C(=O)N[C@@H](C)C(=O)N[C@@H](CCCCN)C(=O)N[C@@H](CCCCN)C(=O)N[C@H](C(=O)N[C@@H](CC(C)C)C(=O)O)[C@@H](C)CC)[C@@H](C)CC)[C@@H](C)O)C2=O)cc(OC)c1OC` (some centres undefined) (X1-GWTLDSAGYLLGKIDLKALAALAKKIL-OH), the pKi is 7.91. As for `C=CCN1CCC[C@H]1CNC(=O)c1cc(CCCSC2CC(=O)N(CCCCCC(=O)N[C@H](C(=O)N[C@@H](Cc3cnc[nH]3)C(=O)N[C@@H](CCCNC(=N)N)C(=O)N3CCC[C@H]3C(=O)N3CCC[C@H]3C(=O)N[C@@H](CCSC)C(=O)N[C@@H](Cc3c[nH]c4ccccc34)C(=O)N[C@@H](CO)C(=O)N3CCC[C@H]3C(=O)N[C@H](C(=O)N[C@@H](Cc3c[nH]c4ccccc34)C(=O)N3CCC[C@H]3C(=O)O)C(C)C)[C@@H](C)O)C2=O)cc(OC)c1OC` (some centres undefined) (X1-THRPPMWSPVWP-OH), the figure is 7.56. `C=CCN1CCC[C@H]1CNC(=O)c1cc(CCCSC2CC(=O)N(CCCCCC(=O)N[C@H](C(=O)N[C@@H](CCC(N)=O)C(=O)N[C@@H](CCCNC(=N)N)C(=O)N[C@@H](CCCCN)C(=O)N[C@@H](CCCNC(=N)N)C(=O)N[C@@H](CCC(N)=O)C(=O)N[C@@H](CCCCN)C(=O)N[C@@H](CC(C)C)C(=O)N[C@@H](CCSC)C(=O)N3CCC[C@H]3C(=O)O)C(C)C)C2=O)cc(OC)c1OC` (some centres undefined) (X1-VQRKRQKLMP-OH) gave a pKi of 7.89. For the molecule H-VQRKRQKLMP-OH, the pKi is less than 6.00.
